We go through 2 molecules from publication PMC11811597, “Phenomics‐Based Discovery of Novel Orthosteric Choline Kinase Inhibitors” (Angewandte Chemie (International Ed. in English), 2025).

For assay [1], the target named is T1, TGOLN2 (Homo sapiens, UniProt O43493).
T1 construct: endogenous in cells; host or cells: intact HepG2 cells
Briefly: PISA thermal profiling, intact HepG2 cells. The class given is cell-based. To be noted: 30 µM, 60 min, n=3. As for the experimental part:
(§1) To further corroborate our findings, we next performed the proteome integral solubility alteration (PISA) assay in HepG2 human hepatoma cells that express high levels of CHKA. Conceptually building on the cellular thermal shift assay (CETSA) with mass spectrometry based detection,[19, 20] PISA leverages compound‐mediated stabilisation of target proteins without the need of chemical modification in intact cells. […]
(§2) Experiments were performed as described earlier with few modifications. In short, 3 replicates of intact HepG2 cells were treated with 30 µM UNC0638, UNC373 or corresponding volume of DMSO in medium-free experimental buffer for 60 min at 37 °C with end-over-end rotation. For lysates: Washed […]
(§3) end-over-end rotation. Each treated cell suspension or lysate was divided into 12 aliquots and subjected to a 12-step heat gradient from 44 °C to 64 °C. All the temperature points were pooled together to form […] individual samples. Soluble fraction was separated from precipitated proteins […]
(§4) by centrifugation at 30,000 × g for 20 min at 4 °C. The soluble fractions were collected to fresh tubes and further processed to be analysed with mass spectrometry. Sample handling, TMT labelling, LC-MS/MS analysis, protein identification and data analysis was performed as described earlier.[12] […]
(§5) […]

The target in assay [2] is T2, SCARB2 (Homo sapiens, UniProt Q14108).
T2 construct: endogenous in cells; host or cells: intact HepG2 cells
Briefly: PISA thermal profiling, intact HepG2 cells. The class given is cell-based. To be noted: 30 µM, 60 min, n=3. The procedure: as §1, §2, §3, §4, §5

For assay [3], the target named is T3, FAM195A (Homo sapiens, UniProt Q9BUT9).
T3 construct: endogenous in cells; host or cells: MCF7 whole cell lysate
The experiment in a line: Competitive affinity-based chemoproteomics (UNC0965 matrix), MCF7 lysate. The assay is classed as binding. Particulars: 20 μM competitor, n=2. As for the experimental part:
A-366 and UNC0638 were purchased from Tocris. ARIAD and V-11-07-11 were purchased from Wuxi Apptec. UNC0737 and UNC0965 were synthesised as previously described.[1] Hemicholinium-3 and pyruvate kinase/lactic dehydrogenase enzymes were purchased from Sigma Aldrich. Aqueous and organic solvents were MS-grade and acquired by Sigma Aldrich unless stated otherwise.
MDA-MB-231, MCF7 and HEK293 cells were cultured in DMEM (Gibco, #11965092) supplemented with 10% FBS. K562 were cultured in IMDM (Gibco, #12440053) supplemented with 10% FBS. HepG2 were cultured in MEM (Gibco, #11095080) supplemented with 10 % FBS. […]
cultured in McCoy’s 5A (Sigma, M8403) supplemented with 10 % FBS and 1x GlutaMAX (Gibco, #35050061). Cells were maintained at 37 °C in a humidified 5% CO2 atmosphere. Peripheral blood mononuclear cells (PBMC) were isolated from healthy blood donors by density centrifugation. […]
Cell Titer-Glo® reagent was added to each well and total luminescence readings were performed within 15 min using the PHERAstar FSX (BMG Labtech). […]
Digested samples were analysed by nano-UPLC–MS/MS using a Dionex Ultimate 3000 nano UPLC fitted with an EASY spray column (75 μm × 500 mm, 2 μm particle size, Thermo Scientific), coupled to an Orbitrap Q Exactive instrument. […]

T1 sequence (O43493 22-437): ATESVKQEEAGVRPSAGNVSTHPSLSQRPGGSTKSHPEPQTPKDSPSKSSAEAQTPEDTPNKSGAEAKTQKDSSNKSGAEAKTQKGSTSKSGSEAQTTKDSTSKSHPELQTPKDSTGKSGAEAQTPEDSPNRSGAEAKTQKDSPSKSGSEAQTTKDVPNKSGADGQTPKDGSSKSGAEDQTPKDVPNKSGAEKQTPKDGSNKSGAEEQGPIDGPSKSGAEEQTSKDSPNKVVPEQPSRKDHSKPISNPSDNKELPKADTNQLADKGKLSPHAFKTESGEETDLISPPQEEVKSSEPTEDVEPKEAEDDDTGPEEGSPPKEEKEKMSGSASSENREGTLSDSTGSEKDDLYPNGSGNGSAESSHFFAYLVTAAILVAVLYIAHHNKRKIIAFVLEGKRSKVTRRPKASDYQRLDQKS
T2 sequence (Q14108 whole entry): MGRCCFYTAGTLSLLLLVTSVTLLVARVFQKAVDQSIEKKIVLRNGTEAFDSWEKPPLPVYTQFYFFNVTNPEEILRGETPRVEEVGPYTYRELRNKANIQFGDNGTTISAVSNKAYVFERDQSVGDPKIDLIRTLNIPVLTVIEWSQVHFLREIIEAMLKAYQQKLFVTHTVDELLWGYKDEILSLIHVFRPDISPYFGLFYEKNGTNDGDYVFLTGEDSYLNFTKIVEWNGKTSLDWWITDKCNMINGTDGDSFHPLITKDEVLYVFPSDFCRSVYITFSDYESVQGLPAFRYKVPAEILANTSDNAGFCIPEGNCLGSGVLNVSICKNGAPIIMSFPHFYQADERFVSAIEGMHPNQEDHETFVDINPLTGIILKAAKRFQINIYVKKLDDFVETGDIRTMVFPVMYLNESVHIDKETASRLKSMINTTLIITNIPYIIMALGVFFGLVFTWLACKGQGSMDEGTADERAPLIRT
T3 sequence (Q9BUT9 whole entry): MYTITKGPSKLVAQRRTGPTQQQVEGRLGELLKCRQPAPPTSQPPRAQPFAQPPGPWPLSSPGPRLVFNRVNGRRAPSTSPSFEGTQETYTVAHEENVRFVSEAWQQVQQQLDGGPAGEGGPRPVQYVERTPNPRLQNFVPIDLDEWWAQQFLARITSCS

With `COc1cc2c(NC3CCN(C(C)C)CC3)nc(C3CCCCC3)nc2cc1OCCCN1CCCC1` [UNC0638], the “effect_CETSA_Intact (PISA amplitude), TGOLN2” value in assay [1] is listed as 0.53. Also, the “effect_CETSA_Intact (PISA amplitude), SCARB2” value in assay [2] is listed as 0.251. For the same molecule, the “FC vs DMSO (log2 competition), FAM195A” value in assay [3] is listed as -1.845.
With `COc1cc2c(N(C)C3CCN(C(C)C)CC3)nc(C3CCCCC3)nc2cc1OCCCN1CCCC1` [UNC0737], the “effect_CETSA_Intact (PISA amplitude), TGOLN2” value in assay [1] is reported as 0.571. The “effect_CETSA_Intact (PISA amplitude), SCARB2” value in assay [2] was 0.514. In addition, the “FC vs DMSO (log2 competition), FAM195A” value in assay [3] is -0.06296.
